Laboratory results as given in patent US20240010684A1, “MASP INHIBITORY COMPOUNDS AND USES THEREOF” (BAYER AKTIENGESELLSCHAFT, priority 2020, published 2024).
Like-named read-outs stand apart in the source and are kept apart here. Where a SMILES comes first, the peptide text is derived from it. Bridges are numbered along the chain shown (N, C = ends). [ ]: non-standard residue; d: D form. Oic = O=C(O)[C@@H]1C[C@@H]2CCCC[C@@H]2N1; tBuAla = CC(C)(C)C[C@H](N)C(=O)O; Pen = CC(C)(S)[C@H](N)C(=O)O; Ahx = NCCCCCC(=O)O

Experiments:
human MASP1 = human MASP1 (Homo sapiens (Human), UniProt P48740); assay: Biochemical human MASP1 assay (FRET substrate)
Method in brief: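 Recombinant human MASP1 (aa 297-699, C-terminal His tag, HEK293-expressed, Ni-NTA purified) diluted to 20 nM in 50 mM HEPES pH 8,0, 100 mM NaCl, 0,01% CHAPS, 0.5 mM glutathione, preincubated with compound in DMSO; reaction started with 20 μM ABZ/Dnp FRET substrate solution. Fluorescence (ex 320/em 420 nm) after 60-120 min at 32 C; IC50 from % inhibition.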

human MASP2 = human MASP2 (Homo sapiens (Human), UniProt O00187); assay: Biochemical human MASP2 assay (FRET substrate)
Method in brief: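 Mature recombinant human MASP2, expressed in HEK293 and purified by Ni-NTA affinity, was reacted with a DABCYL FRET peptide substrate (added as a 60 μM solution) for 60-120 min at 32 C. Fluorescence increase was read at ex 340/em 490 nm; IC50 was derived from % inhibition versus compound concentration.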

rat MASP1 = rat MASP1 (Rattus norvegicus (Rat), UniProt Q8CHN8); assay: Biochemical rat MASP1 assay (FRET substrate)
Source text: A truncated cDNA sequence of rat MASP1encoding the fragment corresponding to the amino acids 302-704 with a C-terminal His Tag and N-terminal Ig-kappa secretion signal (SEQ ID No: 4) was subcloned into the mammalian expression vector pcDNA3.1 (Invitrogen).
(§1) The MASP1 or MASP2 expression vectors were transfected into the HEK293 (ATCC No. CRL-1573) cell line using Lipofectamine LTX® Reagent (Thermo-Fischer), as described by the manufacturer. The mature form of the recombinant rat MASP1 and MASP2 proteases were secreted into the culture medium. The MASP1 and MASP2 proteins were purified from the conditioned media by affinity chromatography on Ni-NTA Superflow resin (Qiagen) as described by the manufacturer.
4.2 Biochemical Rat MASP1 Assay.
Recombinant rat MASP1 enzyme produced in the HEK 293 cells was diluted in the reaction buffer (50 mM HEPES pH 8,0; 100 mM NaCl; 0,01% CHAPS; 0.5 mM Gluthathione) to the concentration of 4 nM and 25 μl was transferred into each single well of 384-well white microtiter plate (Greiner Bio One 781075). 1 μl of the inhibitor compound solution (dissolved in DMSO, at the corresponding concentration) or pure DMSO as a control was added to the same wells. The enzymatic reaction was initiated by addition of 25 μl of 40 μM solution of the FRET substrate Dabcyl-[…]-Glu(Edans)-NH2; (Dabcyl-4-((4-(dimethylamino)phenyl)azo)benzoic acid; Edans-5-[(2-Aminoethyl) amino]naphthalene-1-sulfonyl; custom synthesis by Jerini Peptide Technologies, Berlin) in the reaction buffer. The microtiter plate was incubated for 60-120 min at the temperature of 32 C. The increase of fluorescence intensity was measured in appropriate fluorescence plate reader (e.g. TECAN Ultra) using excitation wavelength of 340 nm and emission wavelength of 490 nm. IC50 values were calculated from percentage of inhibition of rat […] activity as a function of test compound concentration.

rat MASP2 = rat MASP2 (Rattus norvegicus (Rat), UniProt Q9JJS8); assay: Biochemical rat MASP2 assay (FRET substrate)
Source text: as §1, with “The mature form of the recombinant rat MASP1 and MASP2 proteases were secreted into the culture medium.” left out, “M[…]” for “MASP2 proteins”

[1] = system: Human C3-DEPOSITION SERUM; assay: C3 deposition assay, human serum on mannan-coated plates; format: biochemical
Method in brief: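 Plates coated overnight at 4° C with S. cerevisiae mannan (10 μg/mL, pH 9.6), blocked with 1% BSA in TBS 2 h at 37° C; washes in TBS/0.05% Tween 20/5 mM CaCl2. Antibodies diluted in wash buffer with 0.5% BSA. Colorimetric read-out at 450 nm.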

[2] = Average IC50, recombinant human MASP1, read-out: human MASP1 IC50
[3] = Average IC50, recombinant human MASP2, read-out: human MASP2 IC50
[4] = Average IC50, recombinant rat MASP1, read-out: rat MASP1 IC50
[5] = Average IC50, recombinant rat MASP2, read-out: rat MASP2 IC50

Chain of rat MASP2 (Q9JJS8 other isoform, or with tags, fused parts or gaps): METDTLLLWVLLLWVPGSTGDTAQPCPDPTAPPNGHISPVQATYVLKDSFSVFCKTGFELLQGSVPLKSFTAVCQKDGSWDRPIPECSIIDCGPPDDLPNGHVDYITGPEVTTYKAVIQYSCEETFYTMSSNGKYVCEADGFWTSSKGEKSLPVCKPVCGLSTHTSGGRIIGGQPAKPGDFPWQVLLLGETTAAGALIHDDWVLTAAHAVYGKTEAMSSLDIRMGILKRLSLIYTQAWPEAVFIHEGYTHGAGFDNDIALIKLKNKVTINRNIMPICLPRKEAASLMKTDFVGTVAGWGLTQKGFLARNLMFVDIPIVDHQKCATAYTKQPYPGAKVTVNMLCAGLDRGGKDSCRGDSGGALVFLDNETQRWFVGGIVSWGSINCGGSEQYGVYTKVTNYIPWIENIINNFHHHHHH
Chain of human MASP2 (O00187 other isoform, or with tags, fused parts or gaps): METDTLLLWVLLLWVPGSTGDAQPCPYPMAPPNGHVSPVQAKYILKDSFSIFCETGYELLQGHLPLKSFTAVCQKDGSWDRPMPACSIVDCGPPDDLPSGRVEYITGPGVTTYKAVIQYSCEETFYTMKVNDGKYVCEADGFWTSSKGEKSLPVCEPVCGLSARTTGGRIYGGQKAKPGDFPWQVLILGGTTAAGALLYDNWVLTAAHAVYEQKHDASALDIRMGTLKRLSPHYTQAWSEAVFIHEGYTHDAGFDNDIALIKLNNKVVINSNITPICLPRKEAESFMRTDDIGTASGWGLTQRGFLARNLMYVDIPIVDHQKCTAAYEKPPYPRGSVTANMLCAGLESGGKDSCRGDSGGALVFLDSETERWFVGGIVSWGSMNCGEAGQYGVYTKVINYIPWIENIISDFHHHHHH
Chain of human MASP1 (P48740 other isoform, or with tags, fused parts or gaps): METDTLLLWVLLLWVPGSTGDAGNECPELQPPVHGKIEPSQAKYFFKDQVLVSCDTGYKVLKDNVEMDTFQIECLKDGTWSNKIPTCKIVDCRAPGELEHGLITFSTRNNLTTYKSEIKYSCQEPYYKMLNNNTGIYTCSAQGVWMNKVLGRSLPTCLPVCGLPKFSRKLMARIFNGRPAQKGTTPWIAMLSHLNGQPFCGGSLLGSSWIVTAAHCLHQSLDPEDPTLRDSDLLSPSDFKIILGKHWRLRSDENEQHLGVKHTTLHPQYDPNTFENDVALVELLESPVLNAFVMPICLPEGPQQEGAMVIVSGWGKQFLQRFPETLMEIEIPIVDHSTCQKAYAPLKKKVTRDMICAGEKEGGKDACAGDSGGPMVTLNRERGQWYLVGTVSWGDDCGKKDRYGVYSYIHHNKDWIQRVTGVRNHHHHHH
Chain of rat MASP1 (Q8CHN8 other isoform, or with tags, fused parts or gaps): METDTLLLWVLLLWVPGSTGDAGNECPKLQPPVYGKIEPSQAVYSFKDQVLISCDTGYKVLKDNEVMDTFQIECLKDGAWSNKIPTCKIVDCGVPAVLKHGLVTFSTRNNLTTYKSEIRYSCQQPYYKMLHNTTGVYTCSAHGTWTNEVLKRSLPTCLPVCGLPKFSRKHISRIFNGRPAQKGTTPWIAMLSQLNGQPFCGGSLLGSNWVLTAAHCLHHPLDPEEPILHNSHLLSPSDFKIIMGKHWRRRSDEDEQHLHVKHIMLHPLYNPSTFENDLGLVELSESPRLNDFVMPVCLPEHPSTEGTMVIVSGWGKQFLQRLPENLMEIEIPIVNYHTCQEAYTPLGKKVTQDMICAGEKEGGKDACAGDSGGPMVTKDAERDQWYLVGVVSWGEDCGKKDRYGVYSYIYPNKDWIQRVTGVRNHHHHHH

| Structure (SMILES) | IC50 (human MASP1; [2]) | IC50 (human MASP2; [3]) | IC50 (rat MASP1; [4]) | IC50 (rat MASP2; [5]) | IC50 ([1]; Average IC50, read-out: Human C3-[…] IC50) | IC50 (human MASP1) | IC50 (human MASP2) | IC50 (rat MASP1) | IC50 (rat MASP2) | IC50 ([1]; Average IC50, read-out: Human C3-DEPOSITION SERUM IC50) |
| --- | --- | --- | --- | --- | --- | --- | --- | --- | --- | --- |
| CC[C@H](C)[C@@H]1NC(=O)CCCCCNC(=O)CC[C@@H](C(N)=O)NC(=O)[C@@H]2CCCN2C(=O)[C@H]([C@@H](C)CC)NC(=O)[C@H]2NC(=O)[C@H]([C@@H](C)CC)NC(=O)[C@@H]3C[C@@H]4CCCC[C@@H]4N3C(=O)[C@@H]3CCCN3C(=O)[C@H](CC(C)C)NC(=O)[C@H](CO)NC(=O)[C@H](CCCNC(=N)N)NC(=O)[C@H](CO)NC(=O)[C@H](CSSC2(C)C)NC1=O [Example 75] ([Ahx]ICSRSLP[Oic]I[Pen]IPE-NH2; disulfide 3-11; lactam N-14) | 7.2 nM | 14 nM | 27 nM | 1.4 nM |  |  |  |  |  |  |
| CC[C@H](C)[C@@H]1NC(=O)[C@@H]2CSSC[C@H](NC(=O)[C@H](Cc3ccc(O)cc3)NC(=O)CNC(=O)[C@H](CC(=O)O)NC(=O)[C@@H]3CCCN3C1=O)C(=O)N[C@@H](CO)C(=O)N[C@@H](CCCNC(=N)N)C(=O)N[C@@H](CO)C(=O)N[C@@H](Cc1ccc(O)cc1)C(=O)N1CCC[C@H]1C(=O)N1CCC[C@H]1C(=O)N[C@@H](C(C)C)C(=O)N2 [Ref. No 8, reference compound] (cyclo(CIPDGYCSRSYPPV); disulfide 1-7) | 8130 nM |  | 1000 nM | 126 nM |  |  |  |  |  |  |
| CC[C@H](C)[C@@H]1NC(=O)CNC(=O)CCCCCNC(=O)[C@H](CC(=O)O)NC(=O)[C@@H]2CCCN2C(=O)[C@H]([C@@H](C)CC)NC(=O)[C@H]2NC(=O)[C@H]([C@@H](C)CC)NC(=O)[C@@H]3CCCN3C(=O)[C@@H]3CCCN3C(=O)[C@H](CC(C)(C)C)NC(=O)[C@H](CO)NC(=O)[C@H](CCCNC(=N)N)NC(=O)[C@H](CO)NC(=O)[C@H](CSSC2(C)C)NC1=O [Example 28] (cyclo([Ahx]GICSRS[tBuAla]PPI[Pen]IPD); disulfide 4-12) | 19 nM | 29 nM | 79 nM | 16 nM |  |  |  |  |  |  |
| CC[C@H](C)[C@@H]1NC(=O)[C@H](C)NC(=O)CCCCCNC(=O)[C@H]([C@@H](C)CC)NC(=O)[C@H]2NC(=O)[C@H]([C@@H](C)CC)NC(=O)[C@@H]3CCCN3C(=O)[C@@H]3CCCN3C(=O)[C@H](CC(C)(C)C)NC(=O)[C@H](CO)NC(=O)[C@H](CCCNC(=N)N)NC(=O)[C@H](CO)NC(=O)[C@H](CSSC2(C)C)NC1=O [Example 72, N-{3-[(5aS,11S,14S,17S,20S,23R,26S,29S,39S,42R,45S,47aS)-26,39,45-tri[(2S)-butan-2-yl]-11-(2,2-dimethylpropyl)-14,20-bis(hydroxymethyl)-29,48,48-trimethyl-5,10,13,16,19,22,25,28,31,38,41,44,47-tridecaoxohexatetracontahydro-5H-23,42-(methanodithiomethano)dipyrrolo[2,1-1:2′,1′-o][1,4,7,10,13,16,19,22,25,28,31,34,37]tridecaazacyclotritetracontin-17-yl]propyl}guanidine] (cyclo(AICSRS[tBuAla]PPI[Pen]I[Ahx]); disulfide 3-11) | 6.3 nM | 48 nM | 85 nM | 14 nM |  |  |  |  |  |  |
| CC[C@H](C)[C@@H]1NC(=O)CNC(=O)[C@H](CC(=O)O)NC(=O)[C@@H]2CCCN2C(=O)[C@H]([C@@H](C)CC)NC(=O)[C@@H]2CSSC[C@H](NC1=O)C(=O)N[C@@H](CO)C(=O)N[C@@H](CCCNC(=N)N)C(=O)N[C@@H](CO)C(=O)N[C@@H](CC(C)C)C(=O)N1CCC[C@H]1C(=O)N1CCC[C@H]1C(=O)N[C@@H]([C@@H](C)CC)C(=O)N2 [Ref. No 7, reference compound] (cyclo(CIPDGICSRSLPPI); disulfide 1-7) | 145 nM | 895 nM | 1000 nM | 232 nM |  |  |  |  |  |  |
| CC[C@H](C)[C@@H]1NC(=O)[C@@H]2CCCN2C(=O)[C@@H]2CCCN2C(=O)[C@H]([C@@H](C)CC)NC(=O)[C@@H]2CSSC[C@H](NC(=O)[C@H]([C@@H](C)O)NC(=O)[C@H](CCCCN)NC(=O)[C@H](CO)NC1=O)C(=O)N[C@@H](CCCNC(=N)N)C(=O)NCC(=O)N[C@@H](CC(=O)O)C(=O)N1CCC[C@H]1C(=O)N[C@@H](Cc1ccccc1)C(=O)N2 [Ref. No 12, reference compound] (cyclo(RGDPFCIPPISKTC); disulfide 6-14) | 4800 nM | 5000 nM | 1000 nM | 1000 nM |  |  |  |  |  |  |
| CC[C@H](C)[C@@H]1NC(=O)[C@@H]2CCCN2C(=O)[C@@H]2CCCN2C(=O)[C@H](CC(C)(C)C)NC(=O)[C@H](CO)NC(=O)[C@H](CCCNC(=N)N)NC(=O)[C@H](CO)NC(=O)[C@@H]2CSSC(C)(C)[C@H](NC1=O)C(=O)N[C@@H]([C@@H](C)CC)C(=O)N1CCC[C@H]1C(=O)NCCCCCC(=O)NC[C@H]1CC[C@@H](CC1)C(=O)N[C@@H]([C@@H](C)CC)C(=O)N2 [Example 59, N-{3-[(1R,4S,7S,13S,19S,22S,25S,28S,31R,34S,37S,40S,51S,57S)-4,34,57-tri[(2S)-butan-2-yl]-19-(2,2-dimethylpropyl)-22,28-bis(hydroxymethyl)-60,60-dimethyl-3,6,12,18,21,24,27,30,33,36,43,50,56,59-tetradecaoxo-61,62-dithia-2,5,11,17,20,23,26,29,32,35,42,49,55,58-tetradecaazahexacyclo[29.28.4.2^37,400.0^7,110.0^13,170.0^51,55]pentahexacontan-25-yl]propyl}guanidine] | 11 nM | 5.7 nM | 48.6 nM |  | 177 nM |  |  |  |  |  |
| CC[C@H](C)[C@@H]1NC(=O)c2ccc(cc2)CNC(=O)CCCCCNC(=O)[C@@H]2CCCN2C(=O)[C@H]([C@@H](C)CC)NC(=O)[C@H]2NC(=O)[C@H]([C@@H](C)CC)NC(=O)[C@@H]3CCCN3C(=O)[C@@H]3CCCN3C(=O)[C@H](CC(C)(C)C)NC(=O)[C@H](CO)NC(=O)[C@H](CCCNC(=N)N)NC(=O)[C@H](CO)NC(=O)[C@H](CSSC2(C)C)NC1=O [Example 68, N-{3-[(1R,4S,7S,13S,19S,22S,25S,28S,31R,34S,51S,57S)-4,34,57-tri[(2S)-butan-2-yl]-19-(2,2-dimethylpropyl)-22,28-bis(hydroxymethyl)-60,60-dimethyl-3,6,12,18,21,24,27,30,33,36,43,50,56,59-tetradecaoxo-61,62-dithia-2,5,11,17,20,23,26,29,32,35,42,49,55,58-tetradecaazahexacyclo[29.28.4.2^37,400.0^7,110.0^13,170.0^51,55]pentahexaconta-37,39,64-trien-25-yl]propyl}guanidine] |  |  |  |  |  | 6.1 nM | 2.57 nM | 30.8 nM | 2.97 nM |  |
| CC[C@H](C)[C@@H]1NC(=O)CNC(=O)CNC(=O)[C@H](C)NC(=O)[C@H](CC(=O)O)NC(=O)[C@@H]2CCCN2C(=O)[C@H]([C@@H](C)CC)NC(=O)[C@H]2NC(=O)[C@H]([C@@H](C)CC)NC(=O)[C@@H]3CCCN3C(=O)[C@@H]3CCCN3C(=O)[C@H](CC(C)(C)C)NC(=O)[C@H](CO)NC(=O)[C@H](CCCNC(=N)N)NC(=O)[C@H](CO)NC(=O)[C@H](CSSC2(C)C)NC1=O [Example 29] (cyclo(AGGICSRS[tBuAla]PPI[Pen]IPD); disulfide 5-13) | 8.6 nM | 68 nM |  |  |  |  |  |  |  | 84.6 nM |
